{"source": "paper PMC11971462", "about": "“Generation and validation of a novel multitarget small molecule in glioblastoma” (Cell Death & Disease, 2025)", "tested_on": "GNS166 cells", "experiment": "Label-free proteomics differential expression", "assay_type": "cell-based, human", "protocol": "Proteomic studies were performed by the Proteomics Facility of the CIC bioGUNE by label-free relative quantification on nLC MS/MS. […] In both approaches, the top 20 enriched terms were plotted and the pathways were clustered using divisive hierarchical clustering based on pairwise Jaccard distances.", "data": [{"smiles": "C#CCN(Cc1cc2cc(OCCCN3CCCCC3)ccc2n1S(=O)(=O)c1ccccc1)C(=O)CCCCCCC(=O)NO", "note": "[DDI]", "values": [{"measurement": "Direction ANR52_HUMAN", "setting": "protein Q8NB46", "result": "Down"}, {"measurement": "LogFC ANR52_HUMAN", "setting": "protein Q8NB46", "result": -3.184}, {"measurement": "Direction TTC13_HUMAN", "setting": "protein Q8NBP0", "result": "Down"}, {"measurement": "LogFC TTC13_HUMAN", "setting": "protein Q8NBP0", "result": -1.381}, {"measurement": "LogFC KMT2C_HUMAN", "setting": "protein Q8NEZ4 GN=KMT2C", "result": 0.407}, {"measurement": "LogFC PLBL2_HUMAN", "setting": "protein Q8NHP8 GN=PLBD2", "result": 1.378}, {"measurement": "LogFC NEDD1_HUMAN", "setting": "protein Q8NHV4 GN=NEDD1", "result": 0.5958}, {"measurement": "LogFC SMRC2_HUMAN", "setting": "protein Q8TAQ2 GN=SMARCC2", "result": -0.7509}, {"measurement": "LogFC CX038_HUMAN", "setting": "protein Q8TB03 GN=CXorf38", "result": 1.347}, {"measurement": "LogFC GDAP1_HUMAN", "setting": "protein Q8TB36 GN=GDAP1", "result": 1.874}, {"measurement": "Direction CIP2A_HUMAN", "setting": "protein Q8TCG1", "result": "Down"}, {"measurement": "LogFC CIP2A_HUMAN", "setting": "protein Q8TCG1", "result": -1.2095}, {"measurement": "LogFC DDX54_HUMAN", "setting": "protein Q8TDD1 GN=DDX54", "result": -1.067}, {"measurement": "Direction DTD1_HUMAN", "setting": "protein Q8TEA8", "result": "Down"}, {"measurement": "LogFC DTD1_HUMAN", "setting": "protein Q8TEA8", "result": -0.5287}, {"measurement": "LogFC PPIL4_HUMAN", "setting": "protein Q8WUA2 GN=PPIL4", "result": -1.325}, {"measurement": "Direction LMBR1_HUMAN", "setting": "protein Q8WVP7", "result": "Down"}, {"measurement": "LogFC LMBR1_HUMAN", "setting": "protein Q8WVP7", "result": -0.9571}, {"measurement": "LogFC FACR1_HUMAN", "setting": "protein Q8WVX9 GN=FAR1", "result": 0.64}, {"measurement": "LogFC UBCP1_HUMAN", "setting": "protein Q8WVY7 GN=UBLCP1", "result": 1.245}, {"measurement": "Direction ATX2L_HUMAN", "setting": "protein Q8WWM7", "result": "Down"}, {"measurement": "LogFC ATX2L_HUMAN", "setting": "protein Q8WWM7", "result": -0.7543}, {"measurement": "Direction PHIP_HUMAN", "setting": "protein Q8WWQ0", "result": "Down"}, {"measurement": "LogFC PHIP_HUMAN", "setting": "protein Q8WWQ0", "result": -2.692}, {"measurement": "Direction NELFB_HUMAN", "setting": "protein Q8WX92", "result": "Down"}, {"measurement": "LogFC NELFB_HUMAN", "setting": "protein Q8WX92", "result": -0.7153}, {"measurement": "Direction ATLA1_HUMAN", "setting": "protein Q8WXF7", "result": "Down"}, {"measurement": "LogFC ATLA1_HUMAN", "setting": "protein Q8WXF7", "result": -1.239}, {"measurement": "Direction CND3_HUMAN", "setting": "protein Q9BPX3", "result": "Down"}, {"measurement": "LogFC CND3_HUMAN", "setting": "protein Q9BPX3", "result": -1.5744}, {"measurement": "Direction FSP1_HUMAN", "setting": "protein Q9BRQ8", "result": "Down"}, {"measurement": "LogFC FSP1_HUMAN", "setting": "protein Q9BRQ8", "result": -0.8531}, {"measurement": "Direction GCP2_HUMAN", "setting": "protein Q9BSJ2", "result": "Down"}, {"measurement": "LogFC GCP2_HUMAN", "setting": "protein Q9BSJ2", "result": -1.427}, {"measurement": "LogFC P4K2A_HUMAN", "setting": "protein Q9BTU6 GN=PI4K2A", "result": 1.541}, {"measurement": "LogFC TMM43_HUMAN", "setting": "protein Q9BTV4 GN=TMEM43", "result": -0.7287}, {"measurement": "LogFC MKNK1_HUMAN", "setting": "protein Q9BUB5 GN=MKNK1", "result": 1.242}, {"measurement": "LogFC TBB2B_HUMAN", "setting": "protein Q9BVA1 GN=TUBB2B", "result": 1.2351}, {"measurement": "Direction PBDC1_HUMAN", "setting": "protein Q9BVG4", "result": "Down"}, {"measurement": "LogFC PBDC1_HUMAN", "setting": "protein Q9BVG4", "result": -0.9108}, {"measurement": "Direction KIFC1_HUMAN", "setting": "protein Q9BW19", "result": "Down"}, {"measurement": "LogFC KIFC1_HUMAN", "setting": "protein Q9BW19", "result": -4.377}, {"measurement": "Direction NADAP_HUMAN", "setting": "protein Q9BWU0", "result": "Down"}, {"measurement": "LogFC NADAP_HUMAN", "setting": "protein Q9BWU0", "result": -0.9102}, {"measurement": "Direction LS14B_HUMAN", "setting": "protein Q9BX40", "result": "Down"}, {"measurement": "LogFC LS14B_HUMAN", "setting": "protein Q9BX40", "result": -1.3017}, {"measurement": "Direction NUSAP_HUMAN", "setting": "protein Q9BXS6", "result": "Down"}, {"measurement": "LogFC NUSAP_HUMAN", "setting": "protein Q9BXS6", "result": -2.873}, {"measurement": "Direction EIF2A_HUMAN", "setting": "protein Q9BY44", "result": "Down"}, {"measurement": "LogFC EIF2A_HUMAN", "setting": "protein Q9BY44", "result": -0.2917}, {"measurement": "LogFC PDIP3_HUMAN", "setting": "protein Q9BY77 GN=POLDIP3", "result": -0.8716}, {"measurement": "LogFC GNB1L_HUMAN", "setting": "protein Q9BYB4 GN=GNB1L", "result": 2.567}, {"measurement": "LogFC PAR6B_HUMAN", "setting": "protein Q9BYG5 GN=PARD6B", "result": 1.231}, {"measurement": "LogFC ARL6_HUMAN", "setting": "protein Q9H0F7 GN=ARL6", "result": 2.762}, {"measurement": "Direction RGAP1_HUMAN", "setting": "protein Q9H0H5", "result": "Down"}, {"measurement": "LogFC RGAP1_HUMAN", "setting": "protein Q9H0H5", "result": -3.033}, {"measurement": "Direction SMG9_HUMAN", "setting": "protein Q9H0W8", "result": "Down"}, {"measurement": "LogFC SMG9_HUMAN", "setting": "protein Q9H0W8", "result": -1.751}, {"measurement": "Direction YTDC2_HUMAN", "setting": "protein Q9H6S0", "result": "Down"}, {"measurement": "LogFC YTDC2_HUMAN", "setting": "protein Q9H6S0", "result": -1.289}, {"measurement": "LogFC ANKZ1_HUMAN", "setting": "protein Q9H8Y5 GN=ANKZF1", "result": 2.2814}, {"measurement": "LogFC EHMT1_HUMAN", "setting": "protein Q9H9B1 GN=EHMT1", "result": -1.629}, {"measurement": "Direction EHD4_HUMAN", "setting": "protein Q9H223", "result": "Down"}, {"measurement": "LogFC EHD4_HUMAN", "setting": "protein Q9H223", "result": -0.4023}, {"measurement": "LogFC FN3K_HUMAN", "setting": "protein Q9H479 GN=FN3K", "result": -1.71}, {"measurement": "Direction HEAT1_HUMAN", "setting": "protein Q9H583", "result": "Down"}, {"measurement": "LogFC HEAT1_HUMAN", "setting": "protein Q9H583", "result": -0.4862}, {"measurement": "Direction PHAX_HUMAN", "setting": "protein Q9H814", "result": "Down"}, {"measurement": "LogFC PHAX_HUMAN", "setting": "protein Q9H814", "result": -0.7063}, {"measurement": "LogFC NT5D2_HUMAN", "setting": "protein Q9H857 GN=NT5DC2", "result": 0.9697}, {"measurement": "Direction ZWILC_HUMAN", "setting": "protein Q9H900", "result": "Down"}, {"measurement": "LogFC ZWILC_HUMAN", "setting": "protein Q9H900", "result": -1.417}, {"measurement": "LogFC QTRT2_HUMAN", "setting": "protein Q9H974 GN=QTRT2", "result": -0.9473}, {"measurement": "LogFC WDR54_HUMAN", "setting": "protein Q9H977 GN=WDR54", "result": 2.021}, {"measurement": "LogFC ARMT1_HUMAN", "setting": "protein Q9H993 GN=ARMT1", "result": 1.113}, {"measurement": "LogFC KT3K_HUMAN", "setting": "protein Q9HA64 GN=FN3KRP", "result": 0.7505}, {"measurement": "Direction TM165_HUMAN", "setting": "protein Q9HC07", "result": "Down"}, {"measurement": "LogFC TM165_HUMAN", "setting": "protein Q9HC07", "result": -0.8409}, {"measurement": "Direction CWC22_HUMAN", "setting": "protein Q9HCG8", "result": "Down"}, {"measurement": "LogFC CWC22_HUMAN", "setting": "protein Q9HCG8", "result": -0.5601}, {"measurement": "LogFC VAT1L_HUMAN", "setting": "protein Q9HCJ6 GN=VAT1L", "result": 1.2681}, {"measurement": "Direction RM47_HUMAN", "setting": "protein Q9HD33", "result": "Down"}, {"measurement": "LogFC RM47_HUMAN", "setting": "protein Q9HD33", "result": -0.8741}, {"measurement": "Direction TM9S3_HUMAN", "setting": "protein Q9HD45", "result": "Down"}, {"measurement": "LogFC TM9S3_HUMAN", "setting": "protein Q9HD45", "result": -0.5879}, {"measurement": "Direction HM20A_HUMAN", "setting": "protein Q9NP66", "result": "Down"}, {"measurement": "LogFC HM20A_HUMAN", "setting": "protein Q9NP66", "result": -1.261}, {"measurement": "LogFC TNR12_HUMAN", "setting": "protein Q9NP84 GN=TNFRSF12A", "result": -2.0106}, {"measurement": "Direction LUC7L_HUMAN", "setting": "protein Q9NQ29", "result": "Down"}, {"measurement": "LogFC LUC7L_HUMAN", "setting": "protein Q9NQ29", "result": -0.6796}, {"measurement": "Direction SSF1_HUMAN", "setting": "protein Q9NQ55", "result": "Down"}, {"measurement": "LogFC SSF1_HUMAN", "setting": "protein Q9NQ55", "result": -1.815}, {"measurement": "LogFC CL004_HUMAN", "setting": "protein Q9NQ89 GN=C12orf4", "result": 1.057}, {"measurement": "LogFC ITM2C_HUMAN", "setting": "protein Q9NQX7 GN=ITM2C", "result": 1.931}, {"measurement": "LogFC DBLOH_HUMAN", "setting": "protein Q9NR28 GN=DIABLO", "result": 1.0021}, {"measurement": "LogFC DDX21_HUMAN", "setting": "protein Q9NR30 GN=DDX21", "result": -1.5607}, {"measurement": "LogFC HEBP1_HUMAN", "setting": "protein Q9NRV9 GN=HEBP1", "result": 1.384}, {"measurement": "Direction ABC3C_HUMAN", "setting": "protein Q9NRW3", "result": "Down"}, {"measurement": "LogFC ABC3C_HUMAN", "setting": "protein Q9NRW3", "result": -0.8611}, {"measurement": "Direction LANC2_HUMAN", "setting": "protein Q9NS86", "result": "Down"}, {"measurement": "LogFC LANC2_HUMAN", "setting": "protein Q9NS86", "result": -1.981}, {"measurement": "LogFC HOME3_HUMAN", "setting": "protein Q9NSC5 GN=HOMER3", "result": 1.625}, {"measurement": "Direction F207A_HUMAN", "setting": "protein Q9NSI2", "result": "Down"}, {"measurement": "LogFC F207A_HUMAN", "setting": "protein Q9NSI2", "result": -1.761}, {"measurement": "LogFC DIAP3_HUMAN", "setting": "protein Q9NSV4 GN=DIAPH3", "result": -2.473}, {"measurement": "Direction SMC4_HUMAN", "setting": "protein Q9NTJ3", "result": "Down"}, {"measurement": "LogFC SMC4_HUMAN", "setting": "protein Q9NTJ3", "result": -1.4105}, {"measurement": "Direction TYDP1_HUMAN", "setting": "protein Q9NUW8", "result": "Down"}, {"measurement": "LogFC TYDP1_HUMAN", "setting": "protein Q9NUW8", "result": -1.1128}, {"measurement": "Direction FANCI_HUMAN", "setting": "protein Q9NVI1", "result": "Down"}, {"measurement": "LogFC FANCI_HUMAN", "setting": "protein Q9NVI1", "result": -3.564}, {"measurement": "Direction EVA1B_HUMAN", "setting": "protein Q9NVM1", "result": "Down"}, {"measurement": "LogFC EVA1B_HUMAN", "setting": "protein Q9NVM1", "result": -3.511}, {"measurement": "Direction THG1_HUMAN", "setting": "protein Q9NWX6", "result": "Down"}]}]}
